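Interpolation was linear, between the two tested concentrations surrounding the appropriate level; five concentrations were tested over 48 hours in 96-well plates. At the TGI there is no net growth.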
Tests used:
Assay in all cases: growth of human tumour cells (NCI), 48 h
786-0 renal = tested on: 786-0 renal
A498 renal = tested on: A498 renal
A549 NSCLC = tested on: A549 NSCLC
ACHN renal = tested on: ACHN renal
BT-549 breast = tested on: BT-549 breast
CAKI-1 renal = tested on: CAKI-1 renal
CCRF-CEM leukemia = tested on: CCRF-CEM leukemia
COLO 205 colon = tested on: COLO 205 colon
DU-145 prostate = tested on: DU-145 prostate
EKVX NSCLC = tested on: EKVX NSCLC
HCC-2998 colon = tested on: HCC-2998 colon
HCT-116 colon = tested on: HCT-116 colon
HCT-15 colon = tested on: HCT-15 colon
HL-60(TB) leukemia = tested on: HL-60(TB) leukemia
HOP-62 NSCLC = tested on: HOP-62 NSCLC
HOP-92 NSCLC = tested on: HOP-92 NSCLC
HT29 colon = tested on: HT29 colon
IGROV1 ovarian = tested on: IGROV1 ovarian
K-562 leukemia = tested on: K-562 leukemia
KM12 colon = tested on: KM12 colon
LOX IMVI melanoma = tested on: LOX IMVI melanoma
M14 melanoma = tested on: M14 melanoma
MALME-3M melanoma = tested on: MALME-3M melanoma
MCF7 breast = tested on: MCF7 breast
MDA-MB-231 breast = tested on: MDA-MB-231 breast
MDA-MB-435 = tested on: MDA-MB-435
MDA-N = tested on: MDA-N
MOLT-4 leukemia = tested on: MOLT-4 leukemia
NCI-H226 lung = tested on: NCI-H226 lung
NCI-H23 lung = tested on: NCI-H23 lung
NCI-H460 lung = tested on: NCI-H460 lung
NCI-H522 lung = tested on: NCI-H522 lung
NCI/ADR-RES ovarian = tested on: NCI/ADR-RES ovarian
OVCAR-3 ovarian = tested on: OVCAR-3 ovarian
OVCAR-4 ovarian = tested on: OVCAR-4 ovarian
OVCAR-5 ovarian = tested on: OVCAR-5 ovarian
OVCAR-8 ovarian = tested on: OVCAR-8 ovarian
PC-3 prostate = tested on: PC-3 prostate
RPMI-8226 leukemia = tested on: RPMI-8226 leukemia
RXF 393 renal = tested on: RXF 393 renal
SF-295 CNS = tested on: SF-295 CNS
SF-539 CNS = tested on: SF-539 CNS
SK-MEL-2 melanoma = tested on: SK-MEL-2 melanoma
SK-MEL-28 melanoma = tested on: SK-MEL-28 melanoma
SK-MEL-5 melanoma = tested on: SK-MEL-5 melanoma
SK-OV-3 ovarian = tested on: SK-OV-3 ovarian
SN12C renal = tested on: SN12C renal
SNB-19 CNS = tested on: SNB-19 CNS
SNB-75 CNS = tested on: SNB-75 CNS
SR leukemia = tested on: SR leukemia
SW-620 colon = tested on: SW-620 colon
T-47D breast = tested on: T-47D breast
TK-10 renal = tested on: TK-10 renal
U251 CNS = tested on: U251 CNS
UACC-257 melanoma = tested on: UACC-257 melanoma
UACC-62 melanoma = tested on: UACC-62 melanoma
UO-31 renal = tested on: UO-31 renal
HS 578T breast = tested on: HS 578T breast
SF-268 CNS = tested on: SF-268 CNS

In the case of COc1cc(/C=C2\C(=O)N(c3cc(Cl)ccc3Cl)C(c3ccccc3)S2(=O)=O)cc(OC)c1OC (centres undefined), the TGI (786-0 renal) is reported as > 100 µM, the TGI (A498 renal) is reported as > 100 µM and the TGI (A549 NSCLC) is reported as > 100 µM. For the same compound, the TGI (ACHN renal) was > 100 µM, the TGI (BT-549 breast) was > 100 µM and the TGI (CAKI-1 renal) was > 100 µM. The TGI (CCRF-CEM leukemia) was > 100 µM, the TGI (COLO 205 colon) was > 100 µM and the TGI (DU-145 prostate) was > 100 µM. The TGI (EKVX NSCLC) was > 100 µM, the TGI (HCC-2998 colon) was > 100 µM and the TGI (HCT-116 colon) was > 100 µM. For the same compound, the TGI (HCT-15 colon) was > 100 µM, the TGI (HL-60(TB) leukemia) was 51.7 µM and the TGI (HOP-62 NSCLC) was > 100 µM. The TGI (HOP-92 NSCLC) was > 100 µM, the TGI (HT29 colon) was > 100 µM and the TGI (IGROV1 ovarian) was > 100 µM. For the same compound, the TGI (K-562 leukemia) was > 100 µM, the TGI (KM12 colon) was > 100 µM and the TGI (LOX IMVI melanoma) was > 100 µM. The TGI (M14 melanoma) was > 100 µM, the TGI (MALME-3M melanoma) was > 100 µM and the TGI (MCF7 breast) was > 100 µM. The TGI (MDA-MB-231 breast) was > 100 µM, the TGI (MDA-MB-435) was 96.2 µM and the TGI (MDA-N) was 66.1 µM. The TGI (MOLT-4 leukemia) was 99.4 µM, the TGI (NCI-H226 lung) was > 100 µM and the TGI (NCI-H23 lung) was > 100 µM. The TGI (NCI-H460 lung) was > 100 µM, the TGI (NCI-H522 lung) was > 100 µM and the TGI (NCI/ADR-RES ovarian) was > 100 µM. For the same compound, the TGI (OVCAR-3 ovarian) was > 100 µM, the TGI (OVCAR-4 ovarian) was > 100 µM and the TGI (OVCAR-5 ovarian) was > 100 µM. The TGI (OVCAR-8 ovarian) was > 100 µM, the TGI (PC-3 prostate) was > 100 µM and the TGI (RPMI-8226 leukemia) was > 100 µM. For the same compound, the TGI (RXF 393 renal) was > 100 µM, the TGI (SF-295 CNS) was > 100 µM and the TGI (SF-539 CNS) was > 100 µM. The TGI (SK-MEL-2 melanoma) was > 100 µM, the TGI (SK-MEL-28 melanoma) was > 100 µM and the TGI (SK-MEL-5 melanoma) was > 100 µM. The TGI (SK-OV-3 ovarian) was > 100 µM, the TGI (SN12C renal) was > 100 µM and the TGI (SNB-19 CNS) was > 100 µM. For the same compound, the TGI (SNB-75 CNS) was > 100 µM, the TGI (SR leukemia) was > 100 µM and the TGI (SW-620 colon) was > 100 µM. The TGI (T-47D breast) was > 100 µM, the TGI (TK-10 renal) was > 100 µM and the TGI (U251 CNS) was > 100 µM. The TGI (UACC-257 melanoma) was > 100 µM, the TGI (UACC-62 melanoma) was > 100 µM and the TGI (UO-31 renal) was > 100 µM.

With Cc1nn(C2OC(CO)C(O)C(F)C2O)c(=O)[nH]c1=O (centres undefined) the TGI (786-0 renal) was > 100 µM, the TGI (A498 renal) was > 100 µM and the TGI (A549 NSCLC) was > 100 µM. The TGI (ACHN renal) was > 100 µM, the TGI (BT-549 breast) was > 100 µM and the TGI (CAKI-1 renal) was > 100 µM. For the same compound, the TGI (CCRF-CEM leukemia) was > 100 µM, the TGI (COLO 205 colon) was > 100 µM and the TGI (DU-145 prostate) was > 100 µM. The TGI (HCC-2998 colon) was > 100 µM, the TGI (HCT-116 colon) was > 100 µM and the TGI (HCT-15 colon) was > 100 µM. The TGI (HL-60(TB) leukemia) was > 100 µM, the TGI (HOP-92 NSCLC) was > 100 µM and the TGI (HS 578T breast) was > 100 µM. The TGI (HT29 colon) was > 100 µM, the TGI (K-562 leukemia) was > 100 µM and the TGI (LOX IMVI melanoma) was > 100 µM. For the same compound, the TGI (M14 melanoma) was > 100 µM, the TGI (MALME-3M melanoma) was > 100 µM and the TGI (MCF7 breast) was > 100 µM. For the same compound, the TGI (MDA-MB-231 breast) was > 100 µM, the TGI (MDA-MB-435) was > 100 µM and the TGI (MDA-N) was > 100 µM. The TGI (MOLT-4 leukemia) was > 100 µM, the TGI (NCI-H226 lung) was > 100 µM and the TGI (NCI-H23 lung) was > 100 µM. The TGI (NCI-H460 lung) was > 100 µM, the TGI (NCI-H522 lung) was > 100 µM and the TGI (NCI/ADR-RES ovarian) was > 100 µM. For the same compound, the TGI (OVCAR-3 ovarian) was > 100 µM, the TGI (OVCAR-4 ovarian) was > 100 µM and the TGI (OVCAR-5 ovarian) was > 100 µM. For the same compound, the TGI (OVCAR-8 ovarian) was > 100 µM, the TGI (PC-3 prostate) was > 100 µM and the TGI (RPMI-8226 leukemia) was > 100 µM. The TGI (SF-268 CNS) was > 100 µM, the TGI (SF-295 CNS) was > 100 µM and the TGI (SF-539 CNS) was > 100 µM. For the same compound, the TGI (SK-MEL-2 melanoma) was > 100 µM, the TGI (SK-MEL-28 melanoma) was > 100 µM and the TGI (SK-MEL-5 melanoma) was > 100 µM. For the same compound, the TGI (SK-OV-3 ovarian) was > 100 µM, the TGI (SN12C renal) was > 100 µM and the TGI (SNB-19 CNS) was > 100 µM. The TGI (SW-620 colon) was > 100 µM, the TGI (T-47D breast) was > 100 µM and the TGI (TK-10 renal) was > 100 µM. For the same compound, the TGI (U251 CNS) was > 100 µM, the TGI (UACC-257 melanoma) was > 100 µM and the TGI (UACC-62 melanoma) was > 100 µM. The TGI (UO-31 renal) was > 100 µM.

Reference: PubChem BioAssay (NCI)
